These results are taken from patent EP4603105A1, “PHARMACEUTICAL COMPOSITION CONTAINING CYCLIC COMPOUND HAVING SELECTIVE KRAS INHIBITORY EFFECT AGAINST HRAS AND NRAS” (CHUGAI SEIYAKU KABUSHIKI KAISHA, priority 2022, dated 2024).

One test addresses HRAS wild-type protein (Homo sapiens, UniProt P01112). Put plainly: Binding to HRAS by surface plasmon resonance (SPR), KD and KD ratio to KRAS. A digest of the protocol: (§1)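 Affinity is measured by surface plasmon resonance at 30°C against captured, GDP-loaded RAS carrying a biotinylated Avi tag. Compounds are titrated by single-cycle kinetics, and KD comes from a 1:1 fit.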
For test [1], the target named is GDP-bound NRAS wild-type protein (Homo sapiens, UniProt P01111). Kind of test: Binding to NRAS by surface plasmon resonance (SPR), KD and KD ratio to KRAS. A digest of the protocol:
as §1

The test system of test [2] is human lung cancer strain NCI-H441. The test is classed as cell-based. A digest of the protocol: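 Readout: […] after the ATP-based reagent. Compound: serial dilutions in dimethyl sulfoxide.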
The mark [3] stands for this setting: ratio of KD for HRAS wild-type protein to KD for KRAS.
Where [4] appears, read: ratio of KD for GDP-bound NRAS wild-type protein to KD for KRAS.
Where [5] appears, read: ratio of the KD value with respect to HRAS wild-type protein to the KD value with respect to KRAS.
Where [6] appears, read: ratio of the KD value with respect to GDP-bound NRAS wild-type protein to the KD value with respect to KRAS.

*1 amine or outer side, *2 acyl side, *3 side chain or, on linkers, in order; H or OH if unused. Where a SMILES comes first, the peptide text is derived from it. Bridges are numbered along the chain shown (N, C = ends). [ ]: non-standard residue; d: D form. The star is where a group is joined. hPhe(3-Cl-4-CF3) = N[C@@H](CCc1ccc(C(F)(F)F)c(Cl)c1)C(=O)O; NPrPhe(4-CF3) = CCCN[C@@H](Cc1ccc(C(F)(F)F)cc1)C(=O)O; X26 = CCCN([C@@H](Cc1ccc(F)cc1)C(=O)[*:2])[*:1]; NMeGly(cPent) = CN[C@H](C(=O)O)C1CCCC1; NMeD = CN[C@@H](CC(=O)O)C(=O)O; NMeL = CN[C@@H](CC(C)C)C(=O)O; Morpholide = C1CN(*)CCO1; NMeA = CN[C@@H](C)C(=O)O; Ac5c = NC1(C(=O)O)CCCC1; Aze = O=C(O)[C@@H]1CCN1; Sar = CNCC(=O)O

HRAS wild-type protein, sequence (P01112 whole entry): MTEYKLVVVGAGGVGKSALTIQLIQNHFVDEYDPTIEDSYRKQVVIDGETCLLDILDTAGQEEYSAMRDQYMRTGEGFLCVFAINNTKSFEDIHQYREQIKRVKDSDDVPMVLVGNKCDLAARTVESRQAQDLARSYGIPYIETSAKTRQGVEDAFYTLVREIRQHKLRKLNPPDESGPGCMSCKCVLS
GDP-bound NRAS wild-type protein, sequence (P01111 whole entry): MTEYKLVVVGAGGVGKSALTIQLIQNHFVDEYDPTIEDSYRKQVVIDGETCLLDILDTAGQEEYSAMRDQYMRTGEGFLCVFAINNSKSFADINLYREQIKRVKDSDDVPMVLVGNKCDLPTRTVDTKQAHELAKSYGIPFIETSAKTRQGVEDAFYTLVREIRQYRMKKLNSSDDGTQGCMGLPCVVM

As for `CCCN1C(=O)CN(C)C(=O)CN(C)C(=O)[C@H]([C@@H](C)CC)NC(=O)[C@H](CC(C)C)N(C)C(=O)C[C@@H](C(=O)N2CCOCC2)N(C)C(=O)[C@H](C2CCCC2)N(C)C(=O)C2(CCCC2)NC(=O)[C@@H]2CCCN2C(=O)[C@H](CCc2ccc(C(F)(F)F)c(Cl)c2)NC(=O)CN(C)C(=O)[C@@H]1Cc1ccc(C(F)(F)F)cc1` [PP0060] ([NMeL]I[Sar][Sar][NPrPhe(4-CF3)][Sar][hPhe(3-Cl-4-CF3)]P[Ac5c][NMeGly(cPent)][NMeD]-Morpholide; lactam N-11), on HRAS wild-type protein (setting [3]), the “HRAS /KRAS” value is “B (a compound having 3 or more and less than 10 is denoted as B)”. The “NRAS /KRAS” value in test [1] (setting [4]) is “B (a compound having 3 or more and less than 10 is denoted as B)”. Besides, half-maximal inhibition in test [2] (IC50) required 1.5 nM.
Take `CC[C@H](C)[C@@H]1NC(=O)[C@H](CC(C)C)N(C)C(=O)C[C@@H](C(=O)N2CCOCC2)N(C)C(=O)[C@H](C2CCCC2)N(C)C(=O)C2(CCCC2)NC(=O)[C@@H]2CCCN2C(=O)[C@H](CCc2cc(F)c(C(F)(F)F)c(F)c2)NC(=O)CN(C)C(=O)[C@H](Cc2ccc(C(F)(F)F)cc2)N2CCCC[C@@H](C2=O)N(C)C(=O)[C@@H]2CCCCN2C1=O` [PP0548]: the “HRAS /KRAS” value on HRAS wild-type protein (setting [5]) was “B (a compound having 3 or more and less than 10 is denoted as B)”. The “NRAS /KRAS” value in test [1] (setting [6]) was “C (A compound having a KD ratio of 0.1 or more and less than 3 is denoted as C)”. The molecule also displayed an IC50 in test [2] of 501 nM.
Take `CC(C)C[C@H]1C(=O)N[C@@H](C2CCC2)C(=O)N(C)CC(=O)N(C)[C@H]2CCCCCN(C2=O)[C@@H](Cc2ccc(C(F)(F)F)cc2)C(=O)N(C)CC(=O)N[C@@H](CCc2cc(F)c(C(F)(F)F)c(F)c2)C(=O)N2CCC[C@H]2C(=O)NC2(CCCC2)C(=O)N(C)[C@@H](C2CCCC2)C(=O)N(C)[C@H](C(=O)N2CCOCC2)CC(=O)N1C` [PP0522]: the “HRAS /KRAS” value on HRAS wild-type protein (setting [5]) was “B (a compound having 3 or more and less than 10 is denoted as B)”. The “NRAS /KRAS” value in test [1] (setting [6]) was “B (a compound having 3 or more and less than 10 is denoted as B)”. The midpoint of inhibition in test [2], the IC50, lay at 83 nM.
For the molecule `CCCN1C(=O)[C@@H]2CCN2C(=O)[C@H](C)N(C)C(=O)[C@H]([C@@H](C)CC)NC(=O)[C@H](CC(C)C)N(C)C(=O)C[C@@H](C(=O)N2CCOCC2)N(C)C(=O)[C@H](C2CCCC2)N(C)C(=O)C2(CCCC2)NC(=O)[C@@H]2CCCN2C(=O)[C@H](CCc2ccc(C(F)(F)F)c(Cl)c2)NC(=O)CN(C)C(=O)[C@@H]1Cc1ccc(F)cc1` [PP0219] ([NMeL]I[NMeA][Aze][X26][Sar][hPhe(3-Cl-4-CF3)]P[Ac5c][NMeGly(cPent)][NMeD]-Morpholide; lactam N-11), the “HRAS /KRAS” value at HRAS wild-type protein (setting [3]) was “B (a compound having 3 or more and less than 10 is denoted as B)”. For the same molecule, in test [1] (setting [4]), the “NRAS /KRAS” value was “C (A compound having a KD ratio of 0.1 or more and less than 3 is denoted as C)”. Also, in test [2], the IC50 was 2.2 nM.
Regarding `CCO[C@@H]1C[C@H]2C(=O)NC3(CCC3)C(=O)N(C)[C@@H](C(CC)CC)C(=O)N(C)[C@H](C(=O)N3CCCCC3)CC(=O)N(C)[C@H]3CCC/C=C/c4ccc(cc4)C[C@@H](C(=O)N(C)CC(=O)N[C@@H](CCc4cc(F)c(C(F)(F)F)c(F)c4)C(=O)N2C1)N1CC/C=C\C[C@@H](C1=O)N(C)C(=O)CN(C1CC1)C(=O)[C@H]([C@@H](C)CC)NC3=O` [PP2956], the “HRAS /KRAS” value at HRAS wild-type protein (setting [3]) is “A (a compound having 10 or more and less than 20 is denoted as A)”. Further, the “NRAS /KRAS” value in test [1] (setting [4]) is “AA (a compound having 20 or more is denoted as AA)”. Moreover, half-maximal inhibition in test [2] (IC50) required 27.8 nM.
Take `CCOC[C@H]1C(=O)N[C@@H]([C@@H](C)CC)C(=O)N2CCC[C@H]2C(=O)N(C)[C@H]2C/C=C\CCN(C2=O)[C@@H](Cc2ccc(C(F)(F)F)cc2)C(=O)N(C)CC(=O)N[C@@H](CCc2ccc(C(F)(F)F)c(OC)c2)C(=O)N2C[C@H](OCC)C[C@H]2C(=O)N(C)C2(CCC2)C(=O)N(C)[C@@H](C(CC)CC)C(=O)N(C)[C@H](C(=O)N(C)C)CC(=O)N1C` [PP2319]: on HRAS wild-type protein (setting [5]), the “HRAS /KRAS” value is “A (a compound having 10 or more and less than 20 is denoted as A)”. Moreover, the “NRAS /KRAS” value in test [1] (setting [6]) was “AA (a compound having 20 or more is denoted as AA)”. Besides, the IC50 in test [2] is 9.6 nM.
Turning to `CCO[C@@H]1C[C@H]2C(=O)NC3(CC(C)(C)C3)C(=O)N(C)[C@@H](C(CC)CC)C(=O)N(C)[C@H](C(=O)N(C)C)CC(=O)N(C)[C@H]3CCC/C=C/c4ccc(cc4)C[C@@H](C(=O)N(C)CC(=O)N[C@@H](CCc4cc(F)c(C(F)(F)F)c(F)c4)C(=O)N2C1)N1CC/C=C\C[C@@H](C1=O)N(C)C(=O)CN(C)C(=O)[C@H]([C@@H](C)CC)NC3=O` [PP2575], the “HRAS /KRAS” value at HRAS wild-type protein (setting [3]) was “A (a compound having 10 or more and less than 20 is denoted as A)”. For the same molecule, in test [1] (setting [4]), the “NRAS /KRAS” value is “A (a compound having 10 or more and less than 20 is denoted as A)”. Further, in test [2], the midpoint of inhibition, the IC50, lay at 4.1 nM.
For the molecule `CC[C@H](C)[C@@H]1NC(=O)[C@H](CC(C)C)N(C)C(=O)C[C@@H](C(=O)N2CCOCC2)N(C)C(=O)[C@H](C2CCCC2)N(C)C(=O)C2(CCCC2)NC(=O)[C@@H]2CC(=O)CN2C(=O)[C@H](CCc2cc(F)c(C(F)(F)F)c(F)c2)NC(=O)CN(C)C(=O)[C@H](Cc2ccc(C(F)(F)F)cc2)N2CCCCC[C@@H](C2=O)N(C)C(=O)CN(C)C1=O` [PP0493], at HRAS wild-type protein (setting [5]), the “HRAS /KRAS” value was “B (a compound having 3 or more and less than 10 is denoted as B)”. In addition, the “NRAS /KRAS” value in test [1] (setting [6]) was “B (a compound having 3 or more and less than 10 is denoted as B)”. In test [2], this molecule came in with a half-maximal inhibitory concentration (IC50) of 628 nM.
Regarding `CC[C@H](C)[C@@H]1NC(=O)[C@H](CC(C)C)N(C)C(=O)C[C@@H](C(=O)N(C)C)N(C)C(=O)[C@H](C2CCCC2)N(C)C(=O)C2(CCC2)NC(=O)[C@@H]2CC(F)(F)CN2C(=O)[C@H](CCc2cc(F)c(C(F)(F)F)c(F)c2)NC(=O)CN(C)C(=O)[C@H](Cc2ccc(C(F)(F)F)cc2)N2CCCCC[C@@H](C2=O)N(C)C(=O)CN(C)C1=O` [PP0466], at HRAS wild-type protein (setting [5]), the “HRAS /KRAS” value is “B (a compound having 3 or more and less than 10 is denoted as B)”. Also, the “NRAS /KRAS” value in test [1] (setting [6]) is “B (a compound having 3 or more and less than 10 is denoted as B)”. Also, the midpoint of inhibition in test [2], the IC50, lay at 22.6 nM.
As to `CCO[C@@H]1C[C@H]2C(=O)NC3(CC(C)(C)C3)C(=O)N(C)[C@@H](C3CCCC3)C(=O)N(C)[C@H](C(=O)N(C)C)CC(=O)N(C)[C@@H](C(C)C)C(=O)N[C@@H]([C@@H](C)CC)C(=O)N(C)CC(=O)N(C)[C@H]3C/C=C\CCN(C3=O)[C@@H](Cc3ccc(C(F)(F)F)cc3)C(=O)N(C)CC(=O)N[C@@H](CCc3ccc(C(F)(F)F)c(OC)c3)C(=O)N2C1` [PP1979], the “HRAS /KRAS” value at HRAS wild-type protein (setting [5]) was “A (a compound having 10 or more and less than 20 is denoted as A)”. Further, the “NRAS /KRAS” value in test [1] (setting [6]) is on record as “AA (a compound having 20 or more is denoted as AA)”. This molecule also returned an IC50 in test [2] of 12.5 nM.
Take `CCO[C@@H]1C[C@H]2C(=O)NC3(CC(C)(C)C3)C(=O)N(C)[C@@H](C3CCCC3)C(=O)N(C)[C@H](C(=O)N(C)C)CC(=O)N(C)[C@@H](C)C(=O)N[C@@H]([C@@H](C)CC)C(=O)N(C)CC(=O)N(C)[C@H]3C/C=C\CCN(C3=O)[C@@H](Cc3ccc(C(F)(F)F)cc3)C(=O)N(C)CC(=O)N[C@@H](CCc3ccc(C(F)(F)F)c(OC)c3)C(=O)N2C1` [PP1674]: on HRAS wild-type protein (ratio of KD value for HRAS wild-type protein to KD value for KRAS (SPR)), the “HRAS /KRAS” value was “A (a compound having 10 or more and less than 20 is denoted as A)”. Besides, the “NRAS /KRAS” value in test [1] (ratio of KD value for GDP-bound NRAS wild-type protein to KD value for KRAS (SPR)) is “A (a compound having 10 or more and less than 20 is denoted as A)”. This molecule had an IC50 in test [2] of 5.1 nM.
